How the values were obtained:
H358 = assay: CellTiter-Glo cell proliferation assay; assay type: cell-based; settings: Homo sapiens, NCI-H358, Lung(NSCLC), K-RAS
MFM223 = assay: CellTiter-Glo cell proliferation assay; assay type: cell-based; settings: Homo sapiens, MFM-223, Breast, Kinase-HET.1047H > R, HET.350D > N
Experimental: (§1) Cell Culture Medium: RPMI or DMEM high glucose, 10% Fetal Bovine Serum, 2 mM L-Glutamine, P/S. Incubate O/N (overnight) at 37° C., 5% CO2.
(§2) Drug Addition to Cells, Cell Plate (1:10 dilution): Add 6 μl of media+compound directly to cells (54 μl of media on the cells already). Incubate 3 days at 37° C., 5% CO2 in an incubator that will not be opened often.
(§3) Day 5—Develop Plates, Thaw Cell Titer Glo Buffer at room temperature: Remove Cell Plates from 37° C. and equilibrate to room temperature for about 30 minutes. Add Cell Titer-Glo® Buffer to Cell Titer-Glo® Substrate (bottle to bottle). Add 30 μl Cell Titer-Glo® Reagent (Promega cat.#G7572) to each well of cells. Place on plate shaker for about 30 minutes. Read luminescence on Analyst HT Plate Reader (half second per well).

SKOV3 = assay: CellTiter-Glo cell proliferation assay; assay type: cell-based; settings: Homo sapiens, SK-OV-3, Ovarian, Kinase-HET.1047H > R, HET.350D > N
Experimental: as §1, §2, §3

LN-229 = assay: CellTiter-Glo cell proliferation assay; assay type: cell-based; settings: Homo sapiens, Glioma, Helical-HET.545E > K
H520 = assay: CellTiter-Glo cell proliferation assay; assay type: cell-based; settings: Homo sapiens, NCI-H520, Lung(NSCLC), PTEN
EBC-1 = assay: CellTiter-Glo cell proliferation assay; assay type: cell-based; settings: Homo sapiens, Lung(NSCLC), K-RAS
H2030 = assay: CellTiter-Glo cell proliferation assay; assay type: cell-based; settings: Homo sapiens, NCI-H2030, Lung(NSCLC), K-RAS
H838 = assay: CellTiter-Glo cell proliferation assay; assay type: cell-based; settings: Homo sapiens, NCI-H838, Lung(NSCLC), WT
Experimental: as §1, §2, §3

H1650 = assay: CellTiter-Glo cell proliferation assay; assay type: cell-based; settings: Homo sapiens, NCI-H1650, Lung(NSCLC), PTEN
[1] = test system: SKOV3 ovarian tumor xenografts; assay: In vivo mouse tumor xenograft efficacy; settings: PO daily (QD), 21 day treatment period
Experimental: Xenografts were initiated with cancer cells. […] Volume was calculated using the formula:

CAL51 = assay: CellTiter-Glo cell proliferation assay; assay type: cell-based; settings: Homo sapiens, CAL-51, Breast, PTEN/HET.542E > K
Experimental: as §1, §2, §3

HCC-70 = assay: CellTiter-Glo cell proliferation assay; assay type: cell-based; settings: Homo sapiens, HCC70, Breast, PTEN
SF268 = assay: CellTiter-Glo cell proliferation assay; assay type: cell-based; settings: Homo sapiens, SF-268, Glioma, WT
MDA-MB-468 = assay: CellTiter-Glo cell proliferation assay; assay type: cell-based; settings: Homo sapiens, Breast, PTEN
CAL120 = assay: CellTiter-Glo cell proliferation assay; assay type: cell-based; settings: Homo sapiens, CAL-120, Breast, WT
Experimental: as §1, §2, §3

H1793 = assay: CellTiter-Glo cell proliferation assay; assay type: cell-based; settings: Homo sapiens, NCI-H1793, Lung(NSCLC), WT
H1703 = assay: CellTiter-Glo cell proliferation assay; assay type: cell-based; settings: Homo sapiens, NCI-H1703, Lung(NSCLC), WT
IPC298 = assay: CellTiter-Glo cell proliferation assay; assay type: cell-based; settings: Homo sapiens, IPC-298, Melanoma, NRAS Q61L
MO59J = assay: CellTiter-Glo cell proliferation assay; assay type: cell-based; settings: Glioma, PTEN/KRAS
MCF7-neo/HER2 = assay: CellTiter-Glo cell proliferation assay; assay type: cell-based; settings: Breast, Helical-HET.545E > K
Experimental: as §1, §2, §3

HCC-202 = assay: CellTiter-Glo cell proliferation assay; assay type: cell-based; settings: HCC202, Breast, Helical-HET.545E > K, HET.866L > F, HET.391I > M
ZR75-30 = assay: CellTiter-Glo cell proliferation assay; assay type: cell-based; settings: Homo sapiens, ZR-75-30, Breast, WT
U87MG = assay: CellTiter-Glo cell proliferation assay; assay type: cell-based; settings: Homo sapiens, U-87 MG, Glioma, PTEN
SW620 = assay: CellTiter-Glo cell proliferation assay; assay type: cell-based; settings: Homo sapiens, SW-620, Colon, K-RAS
[2] = test system: Endocrine-resistant MCF7-ARO cells; assay: 4 day CellTiter-Glo assay in endocrine resistant cells; assay type: cell-based, human; settings: obtained by letrozole dose escalation over about 4 months
EFM-19 = assay: CellTiter-Glo cell proliferation assay; assay type: cell-based; settings: Homo sapiens, Breast, Kinase-HOM.1047H > L
Experimental: as §1, §2, §3

CAMA-1 = assay: CellTiter-Glo cell proliferation assay; assay type: cell-based; settings: Homo sapiens, Breast, PTEN*
22RV1 = assay: CellTiter-Glo cell proliferation assay; assay type: cell-based; settings: Homo sapiens, Prostate, Helical-HET.546Q > R
KP4x1 = assay: CellTiter-Glo cell proliferation assay; assay type: cell-based; settings: Pancreatic, K-RAS
H1781 = assay: CellTiter-Glo cell proliferation assay; assay type: cell-based; settings: NCI-H1781, Lung(NSCLC), PTEN
PC3 = assay: CellTiter-Glo cell proliferation assay; assay type: cell-based; settings: Homo sapiens, PC-3, Prostate, PTEN
A549 = assay: CellTiter-Glo cell proliferation assay; assay type: cell-based; settings: Homo sapiens, Lung(NSCLC), K-RAS
HCC-1428 = assay: CellTiter-Glo cell proliferation assay; assay type: cell-based; settings: Homo sapiens, HCC1428, Breast, WT
IGROV1 = assay: CellTiter-Glo cell proliferation assay; assay type: cell-based; settings: Homo sapiens, IGROV-1, Ovarian, Kinase-HET.1069O > W
Experimental: as §1, §2, §3

U-118MG = assay: CellTiter-Glo cell proliferation assay; assay type: cell-based; settings: Homo sapiens, Glioma, PTEN
EFM-192A = assay: CellTiter-Glo cell proliferation assay; assay type: cell-based; settings: Breast, HET.420C > R
TOV21GX1 = assay: CellTiter-Glo cell proliferation assay; assay type: cell-based; settings: Ovarian, PTEN/HET.1047H > Y
H1299 = assay: CellTiter-Glo cell proliferation assay; assay type: cell-based; settings: Homo sapiens, NCI-H1299, Lung(NSCLC), N-RAS
[3] = test system: SW48 isogenic cells; parental and PIK3CA knock-in mutants E545K and H1047R; assay: western blot of cell lysates after 18 hours of GDC-0032 exposure; assay type: cell-based; settings: lysates collected 18 hours post dosing
KPL4 = assay: CellTiter-Glo cell proliferation assay; assay type: cell-based; settings: Breast, Kinase-HET.1047H > R, HET.350D > N
Experimental: as §1, §2, §3

Q: `Cc1nc(-c2cn3c(n2)-c2ccc(-c4cnn(C(C)(C)C(N)=O)c4)cc2OCC3)n(C(C)C)n1` [GDC-0032, 2-(4-(2-(1-isopropyl-3-methyl-1H-1,2,4-triazol-5-yl)-5,6-dihydrobenzo[f]imidazo[1,2-d][1,4]oxazepin-9-yl)-1H-pyrazol-1-yl)-2-methylpropanamide] was tested. Which EC50 (H358) did it give?
A: 220 nM

Q: What about the EC50 (MFM223) of the same compound?
A: 211 nM

Q: And the EC50 (SKOV3)?
A: 76 nM

Q: And the EC50 (LN-229)?
A: 3410 nM

Q: And the EC50 (H520)?
A: 264 nM

Q: What about the EC50 (EBC-1) of the same compound?
A: 1660 nM

Q: What about the EC50 (H2030) of the same compound?
A: 2310 nM

Q: And the EC50 (H838)?
A: 3100 nM

Q: What about the EC50 (H1650) of the same compound?
A: 1480 nM

Q: What about the tumor volume change [1] of the same compound?
A: dose-dependent decrease in tumor volume

Q: And the EC50 (CAL51)?
A: 326 nM

Q: What about the EC50 (HCC-70) of the same compound?
A: 43 nM

Q: What about the EC50 (SF268) of the same compound?
A: 1070 nM

Q: And the EC50 (MDA-MB-468)?
A: 7880 nM

Q: What about the EC50 (CAL120) of the same compound?
A: 3840 nM

Q: And the EC50 (H1793)?
A: 2020 nM

Q: And the EC50 (H1703)?
A: 136 nM

Q: What about the EC50 (IPC298) of the same compound?
A: 10000 nM

Q: And the EC50 (MO59J)?
A: 5650 nM

Q: What about the EC50 (MCF7-neo/HER2) of the same compound?
A: 178 nM

Q: What about the EC50 (HCC-202) of the same compound?
A: 18 nM

Q: And the EC50 (ZR75-30)?
A: 21 nM

Q: What about the EC50 (U87MG) of the same compound?
A: 1020 nM

Q: And the EC50 (SW620)?
A: 10000 nM

Q: And the “sensitivity of endocrine-resistant cells” value [2]?
A: sensitive to GDC-0032

Q: And the EC50 (EFM-19)?
A: 13 nM

Q: What about the EC50 (CAMA-1) of the same compound?
A: 5620 nM

Q: And the EC50 (22RV1)?
A: 50 nM

Q: And the EC50 (KP4x1)?
A: 2940 nM

Q: What about the EC50 (H1781) of the same compound?
A: 561 nM

Q: And the EC50 (PC3)?
A: 864 nM

Q: And the EC50 (A549)?
A: 906 nM

Q: And the EC50 (HCC-1428)?
A: 10000 nM

Q: What about the EC50 (IGROV1) of the same compound?
A: 31 nM

Q: And the EC50 (U-118MG)?
A: 3200 nM

Q: And the EC50 (EFM-192A)?
A: 101 nM

Q: What about the EC50 (TOV21GX1) of the same compound?
A: 10000 nM

Q: And the EC50 (H1299)?
A: 1720 nM

Q: What about the “apoptosis induction (autoradiograms of lysates)” value [3] of the same compound?
A: induces apoptosis in cells harboring PI3K mutations at very low compound concentrations

Q: What about the EC50 (KPL4) of the same compound?
A: 16 nM
